Measured values as given in the NIST ThermoML archive (doi:10.1021/je1009224).

Columns and labels:
[1] = 101.3 kPa, Liquid
[2] = xn = mol fraction of the nth substance listed; details: 101 kPa, Liquid

CCCCCC[n+]1ccn(C)c1.O=S(=O)([N-]S(=O)(=O)C(F)(F)F)C(F)(F)F
[1]
Details	viscosity [mPa·s]
283.1 K	136
298.15 K	70.1
323.15 K	25.8
348.15 K	13.5

CCCCCC[n+]1ccn(C)c1.O=S(=O)([N-]S(=O)(=O)C(F)(F)F)C(F)(F)F + C=CCCCCCC
[2], x2 = 0
Details	viscosity [mPa·s]
283.1 K	136
298.15 K	70.1
323.15 K	25.8
348.15 K	13.5

C=CCCCCCC [oct-1-ene]
[1]
Details	viscosity [mPa·s]
283.1 K	0.56
298.15 K	0.47
323.15 K	0.37
348.15 K	0.3

C=CCCCCCC [oct-1-ene] + CCCCCC[n+]1ccn(C)c1.O=S(=O)([N-]S(=O)(=O)C(F)(F)F)C(F)(F)F
viscosity [mPa·s], [2]
Details	283.1 K	298.15 K	323.15 K	348.15 K
x1 = 0.05	127	66.6	24.4	13
x1 = 0.1	106	56.2	21.6	11.6
x1 = 0.15	93	51.2	20.5	11.4
x1 = 1	0.56	0.47	0.37	0.3
